Test results from the supplement of paper PMC10307832.

Assays:
Assay in all cases: relative viability (nuclei count vs DMSO), 5 days (fraction); higher = more cells survive
Bromopyruvate + OSI-027 = compound: C(C(=O)C(=O)O)Br [Bromopyruvate] + COc1cccc2cc(-c3nc([C@H]4CC[C@H](C(=O)O)CC4)n4ncnc(N)c34)[nH]c12 [OSI-027] (partner 0.5 µM)
Procedure, shortened: (§1)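 Relative viability was taken as the ratio of nuclei in treated wells to nuclei in vehicle wells. Lung cancer cell lines in 1536-well plates received compounds by pin tool one day after seeding, either one drug alone or a fixed anchor-drug dose plus five library-drug doses (not always all listed) in √10 steps. Nuclei were counted on 4× images after 5 days of treatment, and values are medians of duplicate plates.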

[1] = compound: C(C(=O)C(=O)O)Br [Bromopyruvate] + C[C@]1(O)C[C@@H](c2nc(-c3ccc4ccc(-c5ccccc5)nc4c3)c3c(N)nccn32)C1 [Linsitinib] (partner 1 µM)
Procedure, shortened: as §1

[2] = compound: C(C(=O)C(=O)O)Br [Bromopyruvate] + N=C(N)NC(=N)NCCc1ccccc1 [Phenformin] (partner 250 µM)
Procedure, shortened: as §1

[3] = compound: CC(O)(CS(=O)(=O)c1ccc(F)cc1)C(=O)Nc1ccc(C#N)c(C(F)(F)F)c1 [Bicalutamide] + CCNC(=O)c1noc(-c2cc(C(C)C)c(O)cc2O)c1-c1ccc(CN2CCOCC2)cc1 [Luminespib] (partner 0.01 µM)
Procedure, shortened: as §1

| Cell Line | relative viability (Bromopyruvate + OSI-027; first compound 1 µM) | relative viability (Bromopyruvate + OSI-027; first compound 3.162 µM) | relative viability (Bromopyruvate + OSI-027; first compound 10 µM) | relative viability (Bromopyruvate + OSI-027; first compound 31.62 µM) | relative viability (Bromopyruvate + OSI-027; first compound 100 µM) | relative viability ([1]; first compound 1 µM) | relative viability ([1]; first compound 3.162 µM) | relative viability ([1]; first compound 10 µM) | relative viability ([1]; first compound 31.62 µM) | relative viability ([1]; first compound 100 µM) | relative viability ([2]; first compound 1 µM) | relative viability ([2]; first compound 3.162 µM) | relative viability ([2]; first compound 10 µM) | relative viability ([2]; first compound 31.62 µM) | relative viability ([2]; first compound 100 µM) | relative viability ([3]; first compound 0.08 µM) | relative viability ([3]; first compound 0.253 µM) | relative viability ([3]; first compound 0.8 µM) | relative viability ([3]; first compound 2.53 µM) |
| --- | --- | --- | --- | --- | --- | --- | --- | --- | --- | --- | --- | --- | --- | --- | --- | --- | --- | --- | --- |
| NCI-H1666 | 0.913 | 0.881 | 0.836 | 0.923 | 0.854 | 0.736 | 0.764 | 0.783 | 0.744 | 0.86 | 0.598 | 0.582 | 0.606 | 0.605 | 0.496 | 1.04 | 0.989 | 1.03 | 0.961 |
| LC-2-ad | 0.839 | 0.867 | 0.9 | 0.837 | 0.633 | 0.825 | 0.93 | 0.869 | 0.842 | 0.909 | 0.564 | 0.621 | 0.576 | 0.599 | 0.525 | 1.1 | 0.954 | 1.03 | 1.06 |
| SW 1573 | 0.751 | 0.674 | 0.73 | 0.475 | 0.0547 | 0.839 | 0.842 | 0.794 | 0.776 | 0.651 | 0.387 | 0.446 | 0.385 | 0.34 | 0.0639 | 0.506 | 0.213 | 0.209 | 0.181 |
| COR-L 105 | 0.563 | 0.701 | 0.712 | 0.671 | 0.639 | 0.943 | 0.898 | 0.838 | 0.736 | 0.702 | 0.488 | 0.438 | 0.484 | 0.405 | 0.391 | 1.04 | 0.721 | 0.911 | 0.652 |
| NCI-H1975 | 0.742 | 0.912 | 0.687 | 0.731 | 0.718 | 0.877 | 1.12 | 1.16 | 0.999 | 0.853 | 0.431 | 0.443 | 0.439 | 0.407 | 0.367 | 0.294 | 0.23 | 0.33 | 0.177 |
| NCI-H2009 | 0.6 | 0.66 | 0.669 | 0.545 | 0.305 | 1.16 | 1.25 | 1.22 | 1.1 | 0.97 | 0.476 | 0.493 | 0.507 | 0.475 | 0.344 | 1.06 | 1.01 | 0.987 | 1.04 |
| SK-LU-1 | 0.378 | 0.316 | 0.303 | 0.317 | 0.305 | 1.02 | 1.09 | 1.12 | 0.964 | 1.09 | 0.52 | 0.533 | 0.581 | 0.506 | 0.494 | 0.189 | 0.188 | 0.217 | 0.188 |
| NCI-H2347 | 0.453 | 0.401 | 0.379 | 0.357 | 0.375 | 0.995 | 0.989 | 1.21 | 0.756 | 1.08 | 0.463 | 0.35 | 0.572 | 0.312 | 0.566 | 0.357 | 0.399 | 0.263 | 0.673 |
| EMC-BAC-2 | 0.384 | 0.382 | 0.397 | 0.397 | 0.405 | 0.716 | 0.825 | 0.9 | 0.838 | 0.887 | 0.517 | 0.519 | 0.637 | 0.548 | 0.571 | 1.13 | 1.14 | 1.17 | 1.06 |
| NCI-H3122 | 0.914 | 1.13 | 1.27 | 0.964 | 1.06 | 1.02 | 1.02 | 1.03 | 0.987 | 0.941 | 0.401 | 0.398 | 0.394 | 0.374 | 0.376 | 0.0979 | 0.0782 | 0.126 | 0.106 |
| NCI-H358 | 0.813 | 0.758 | 0.956 | 0.769 | 0.797 | 0.748 | 0.77 | 0.81 | 0.62 | 0.903 | 0.406 | 0.327 | 0.351 | 0.304 | 0.315 | 0.488 | 0.295 | 0.582 | 0.32 |
| NCI-H1944 | 0.462 | 0.459 | 0.49 | 0.415 | 0.464 | 1.27 | 1.31 | 1.19 | 1.12 | 1.22 | 0.218 | 0.225 | 0.217 | 0.206 | 0.214 | 0.759 | 0.66 | 0.845 | 0.779 |
| EPLC-272H | 0.245 | 0.244 | 0.359 | 0.251 | 0.301 | 1.06 | 1.14 | 1.13 | 1.19 | 1.3 | 0.31 | 0.314 | 0.309 | 0.367 | 0.347 | 0.178 | 0.293 | 1.17 | 0.154 |
| NCI-H1915 | 0.669 | 0.612 | 0.665 | 0.637 | 0.677 | 1.12 | 1.15 | 1.09 | 1.09 | 1.1 | 0.363 | 0.371 | 0.378 | 0.379 | 0.383 | 0.761 | 0.69 | 0.934 | 0.762 |
| NCI-H647 | 0.618 | 0.744 | 0.689 | 0.653 | 0.633 | 1.03 | 1.48 | 1.55 | 1.15 | 0.806 | 0.5 | 0.637 | 0.578 | 0.494 | 0.494 | 0.126 | 0.114 | 0.255 | 0.112 |
| NCI-H441 | 0.709 | 0.693 | 0.76 | 0.609 | 0.571 | 0.533 | 0.656 | 0.543 | 0.507 | 0.518 | 0.852 | 0.945 | 0.796 | 0.743 | 0.838 | 0.291 | 0.377 | 0.356 | 0.411 |
| NCI-H23 | 0.605 | 0.695 | 0.612 | 0.71 | 0.661 | 0.484 | 0.584 | 0.661 | 0.54 | 0.51 | 0.778 | 0.842 | 0.837 | 0.809 | 0.857 | 0.223 | 0.195 | 0.171 | 0.212 |
